Test results from US10030020B2, “Spirocycle compounds and methods of making and using same” (Abide Therapeutics, Inc., priority 2016, dated 2018).
Where two headings read alike, the source gives them in different places.

Legend:
FAAH [1] = target: T1, FAAH (Mus musculus (Mouse), UniProt O08914); test: In vitro competitive activity-based protein profiling (mouse brain membrane fraction or cell lysates), FAAH band; assay type: biochemical; details: for inhibition at 1 µM: read-out: FAAH % Inh 1 μM (mouse); for IC50: competitive ABPP
In short: (§1)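 Mouse proteome samples (brain membrane fraction or cell lysate, 1.0 mg/mL protein) were pretreated with varying inhibitor concentrations and subsequently probed with fluorophosphonate-rhodamine, each step lasting 30 min at 37° C. Labelled proteins were separated by SDS-PAGE, and band fluorescence was imaged and quantified.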

ABHD6 [2] = target: T2, ABHD6 (Mus musculus (Mouse), UniProt Q8R2Y0); test: Mouse brain proteomes from inhibitor treated mice (oral gavage, sacrificed 4 h after administration, ABPP analysis), ABHD6; assay type: in vivo, mouse (C57Bl/6J); details: 5 mg/kg oral gavage
In short: (§2)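 Percent inhibition in brain tissue measured by ABPP 4 h after a single oral gavage dose (5 mg/kg) to wild-type C57Bl/6J mice; vehicle was, for example, PEG400/Ethanol/PBS at 7/2/1.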

MAGL [3] = target: MAGL (Homo sapiens (Human), UniProt Q99685); test: In vitro competitive activity-based protein profiling (human prefrontal cortex or cell membrane fractions; hMAGL expressed in HEK293T cells); assay type: biochemical
Procedure: In Vitro Competitive Activity-Based Protein Profiling (Human).
Proteomes (human prefrontal cortex or cell membrane fractions) (50 μL, 1.0-2.0 mg/mL total protein concentration) were preincubated with varying concentrations of inhibitors at 37° C. After 30 min, FP—Rh or JW912 (1.0 μL, 50 μM in DMSO) was added and the mixture was incubated for another 30 min at room temperature. Reactions were quenched with SDS loading buffer (15 μL-4×) and run on SDS-PAGE.
Recombinant Expression of Human MAGL in HEK293T Cells.
Cell lysates were diluted with mock proteomes for use in competitive ABPP experiments.

FAAH [4] = target: T1, FAAH; test: Mouse brain proteomes from inhibitor treated mice (oral gavage, sacrificed 4 h after administration, ABPP analysis), FAAH; assay type: in vivo, mouse (C57Bl/6J); details: 5 mg/kg oral gavage
In short: as §2

MAGL [5] = target: T3, MAGL (Mus musculus (Mouse), UniProt O35678); test: Mouse brain proteomes from inhibitor treated mice (oral gavage, sacrificed 4 h after administration, ABPP analysis); assay type: in vivo, mouse (C57Bl/6J); details: 5 mg/kg oral gavage
In short: as §2

ABHD6 [6] = target: T2, ABHD6; test: In vitro competitive activity-based protein profiling (mouse brain membrane fraction or cell lysates), ABHD6 band; assay type: biochemical; details: for inhibition at 1 µM: read-out: ABHD6 % Inh 1 μM (mouse); for IC50: competitive ABPP
In short: as §1

MAGL [7] = target: T3, MAGL; test: In vitro competitive activity-based protein profiling (mouse brain membrane fraction or cell lysates), MAGL band; assay type: biochemical; details: for inhibition at 1 µM: read-out: MAGL % Inh 1 μM (mouse); for IC50: competitive ABPP
Procedure: In Vitro Competitive Activity-Based Protein Profiling.
Proteomes (mouse brain membrane fraction or cell lysates) (50 μL, 1.0 mg/mL total protein concentration) were preincubated with varying concentrations of inhibitors at 37° C. After 30 min, FP—Rh (1.0 μL, 50 μM in DMSO) was added and the mixture was incubated for another 30 min at 37° C. Reactions were quenched with SDS loading buffer (50 μL-4×) and run on SDS-PAGE.

[8] = human proteome, competitive ABPP

T2 sequence (Q8R2Y0 whole entry): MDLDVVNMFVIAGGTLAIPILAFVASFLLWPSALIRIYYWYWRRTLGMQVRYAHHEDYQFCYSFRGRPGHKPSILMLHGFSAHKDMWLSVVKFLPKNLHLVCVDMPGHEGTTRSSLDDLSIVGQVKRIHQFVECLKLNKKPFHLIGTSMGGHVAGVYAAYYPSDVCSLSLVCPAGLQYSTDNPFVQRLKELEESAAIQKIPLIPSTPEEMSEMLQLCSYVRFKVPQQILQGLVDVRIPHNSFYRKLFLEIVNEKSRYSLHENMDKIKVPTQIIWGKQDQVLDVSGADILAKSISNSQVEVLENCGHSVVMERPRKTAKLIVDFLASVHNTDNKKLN
T3 sequence (O35678 whole entry): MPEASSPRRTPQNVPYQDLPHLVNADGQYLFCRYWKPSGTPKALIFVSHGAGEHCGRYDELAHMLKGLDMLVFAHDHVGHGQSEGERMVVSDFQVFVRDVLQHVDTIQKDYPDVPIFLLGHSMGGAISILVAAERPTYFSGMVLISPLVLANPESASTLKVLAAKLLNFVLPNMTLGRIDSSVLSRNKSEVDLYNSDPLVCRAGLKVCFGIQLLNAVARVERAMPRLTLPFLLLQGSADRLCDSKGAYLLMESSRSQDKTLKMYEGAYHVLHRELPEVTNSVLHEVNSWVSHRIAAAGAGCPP
T1 sequence (O08914 whole entry): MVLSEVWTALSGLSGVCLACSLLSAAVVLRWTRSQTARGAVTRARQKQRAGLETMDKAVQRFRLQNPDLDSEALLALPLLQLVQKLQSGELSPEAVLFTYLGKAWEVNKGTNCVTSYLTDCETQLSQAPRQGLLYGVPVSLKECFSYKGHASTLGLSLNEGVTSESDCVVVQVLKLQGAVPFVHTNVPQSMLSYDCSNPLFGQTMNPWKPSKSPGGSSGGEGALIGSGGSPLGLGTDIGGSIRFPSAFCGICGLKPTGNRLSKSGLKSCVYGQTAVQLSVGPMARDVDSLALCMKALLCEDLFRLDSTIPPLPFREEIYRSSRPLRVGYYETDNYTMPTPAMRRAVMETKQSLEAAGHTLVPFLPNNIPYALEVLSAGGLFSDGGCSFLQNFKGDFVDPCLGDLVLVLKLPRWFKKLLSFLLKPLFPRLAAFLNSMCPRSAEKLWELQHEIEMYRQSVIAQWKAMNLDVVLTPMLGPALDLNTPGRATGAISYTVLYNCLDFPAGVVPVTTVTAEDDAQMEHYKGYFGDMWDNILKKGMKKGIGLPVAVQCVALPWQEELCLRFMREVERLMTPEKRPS
MAGL (Homo sapiens (Human), UniProt Q99685), sequence (Q99685 whole entry): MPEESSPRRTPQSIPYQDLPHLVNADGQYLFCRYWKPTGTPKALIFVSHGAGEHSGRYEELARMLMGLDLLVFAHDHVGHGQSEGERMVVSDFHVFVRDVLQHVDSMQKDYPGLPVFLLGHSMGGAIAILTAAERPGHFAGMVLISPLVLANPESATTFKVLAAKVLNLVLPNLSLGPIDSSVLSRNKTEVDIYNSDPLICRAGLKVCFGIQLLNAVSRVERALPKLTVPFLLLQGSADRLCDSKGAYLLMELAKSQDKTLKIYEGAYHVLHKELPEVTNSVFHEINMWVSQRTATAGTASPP

## O=C(O)C1CCN(c2cc(CN3CCCC34CCN(C(=O)OC(C(F)(F)F)C(F)(F)F)CC4)cc(C(F)(F)F)c2)CC1 [Example 123, 1-(3-((8-(((1,1,1,3,3,3-Hexafluoropropan-2-yl)oxy)carbonyl)-1,8-diazaspiro[4.5]decan-1-yl)methyl)-5-(trifluoromethyl)phenyl)piperidine-4-carboxylic acid]
FAAH [1]; mouse proteome
  inhibition at 1 µM: < 25%
  IC50: > 1 µM
ABHD6 [2]
  ABHD6 % Inh 5 mg/kg (mouse): ## (## is equal to or greater than 25% but less than 75%)
MAGL [3]; [8]
  IC50: < 0.1 µM
FAAH [4]
  FAAH % Inh 5 mg/kg (mouse): # (# is <25%)
MAGL [5]
  MAGL % Inh 5 mg/kg (mouse): ### (### is ≥75%)
ABHD6 [6]; mouse proteome
  inhibition at 1 µM: < 25%
  IC50: > 1 µM
MAGL [7]; mouse proteome
  inhibition at 1 µM: > 75%
  IC50: < 0.1 µM

## O=C(OC(C(F)(F)F)C(F)(F)F)N1CCC2(CCCN2Cc2ccc(C(F)(F)F)c(N3CCOCC3)c2)CC1 [Example 133, 1,1,1,3,3,3-Hexafluoropropan-2-yl 1-(3-morpholino-4-(trifluoromethyl)benzyl)-1,8-diazaspiro[4.5]decane-8-carboxylate]
FAAH [1]; mouse proteome
  inhibition at 1 µM: < 25%
  IC50: > 1 µM
ABHD6 [2]
  ABHD6 % Inh 5 mg/kg (mouse): # (# is <25%)
MAGL [3]; [8]
  IC50: < 0.1 µM
FAAH [4]
  FAAH % Inh 5 mg/kg (mouse): # (# is <25%)
MAGL [5]
  MAGL % Inh 5 mg/kg (mouse): ### (### is ≥75%)
ABHD6 [6]; mouse proteome
  inhibition at 1 µM: < 25%
  IC50: > 1 µM
MAGL [7]; mouse proteome
  inhibition at 1 µM: > 75%
  IC50: < 0.1 µM

## O=C(OC(C(F)(F)F)C(F)(F)F)N1CCC2(CCCN2Cc2ccc(C(F)(F)F)c(N3CCCC3)c2)CC1 [Example 134, 1,1,1,3,3,3-Hexafluoropropan-2-yl 1-(3-(pyrrolidin-1-yl)-4-(trifluoromethyl)benzyl)-1,8-diazaspiro[4.5]decane-8-carboxylate]
FAAH [1]; mouse proteome
  inhibition at 1 µM: < 25%
  IC50: > 1 µM
ABHD6 [2]
  ABHD6 % Inh 5 mg/kg (mouse): # (# is <25%)
MAGL [3]; [8]
  IC50: < 0.1 µM
FAAH [4]
  FAAH % Inh 5 mg/kg (mouse): # (# is <25%)
MAGL [5]
  MAGL % Inh 5 mg/kg (mouse): ### (### is ≥75%)
ABHD6 [6]; mouse proteome
  inhibition at 1 µM: < 25%
  IC50: > 1 µM
MAGL [7]; mouse proteome
  inhibition at 1 µM: > 75%
  IC50: < 0.1 µM

## O=C(O)C1CN(c2cc(CN3CCC4(CCN(C(=O)OC(C(F)(F)F)C(F)(F)F)CC4)C3)cc(C(F)(F)F)c2)CCO1 (stereo not shown) [Example 277]
FAAH [1]; mouse
  inhibition at 1 µM: < 25%
MAGL [3]; human
  IC50: < 0.1 µM
ABHD6 [6]; mouse
  inhibition at 1 µM: ≥ 75%
MAGL [7]; mouse
  inhibition at 1 µM: > 75%

## O=C(O)C1COCCN1c1cc(CN2CCC3(CCN(C(=O)OC(C(F)(F)F)C(F)(F)F)CC3)C2)cc(C(F)(F)F)c1 (stereo not shown) [Example 278]
FAAH [1]; mouse
  inhibition at 1 µM: < 25%
MAGL [3]; human
  IC50: < 0.1 µM
ABHD6 [6]; mouse
  inhibition at 1 µM: ≥ 75%
MAGL [7]; mouse
  inhibition at 1 µM: > 75%

## O=C(O)C1CCN(c2cc(CN3CCC4(CCN(C(=O)OC(C(F)(F)F)C(F)(F)F)CC4)C3)cc(C(F)(F)F)c2)CC1 [Example 279]
FAAH [1]; mouse
  inhibition at 1 µM: < 25%
MAGL [3]; human
  IC50: < 0.1 µM
ABHD6 [6]; mouse
  inhibition at 1 µM: ≥ 75%
MAGL [7]; mouse
  inhibition at 1 µM: > 75%

## C#Cc1ccc(CN2CCCC23CCN(C(=O)OC(C(F)(F)F)C(F)(F)F)CC3)cc1 [Example 280]
FAAH [1]; mouse
  inhibition at 1 µM: < 25%
MAGL [3]; human
  IC50: < 0.1 µM
ABHD6 [6]; mouse
  inhibition at 1 µM: < 25%
MAGL [7]; mouse
  inhibition at 1 µM: > 75%
